Measurements published in patent publication US20180273464A1, “SYNTHESIS AND IN VITRO ACTIVITY OF D-LACTIC ACID OLIGOMERS” (priority 2018, published 2018).

Assays:
[1] = Sequestration of L-lactate by D-lactic acid oligomers, tetrazolium indicator color test strips; conditions: for Tetrazolium indicator (L-lactic acid): room temperature, 2 minutes; for sequestration of L-lactate in vitro: summary statement
Experimental: Lactic acid concentration was measured by tetrazolium indicator color test strips (Accuvin, LLC, Napa, Calif.) from the reaction of L-lactic acid and […] in the presence of lactate dehydrogenase. Samples of D-lactic acid oligomers (n=2, n=3, n=4, n=5, and n=6) were weighed on truncated 100 microliter pipette tips. […] The reactions were carried out at room temperature for 2 minutes, then 20 microliters were applied to L-lactic acid test strips, and the results were read after 2 minutes.

[2] = earlier work (Goldberg, Weinberg 2017); cited from earlier work
[3] = test system: cultured leukemia cells; conditions: earlier work (Goldberg, Weinberg 2016, 2017); cited from earlier work
[4] = test system: HeLa cells; conditions: earlier work (Goldberg, Weinberg 2016, 2017); cited from earlier work
[5] = test system: retinoblastoma cells; conditions: earlier work (Goldberg, Weinberg 2016, 2017); cited from earlier work
[6] = test system: normal fibroblasts; conditions: at a similar hydrogen ion concentration; cited from earlier work
[7] = 5.0 mg oligomer in 40 microliters of 10 mM L-lactic acid

## CC(O)C(=O)OC(C)C(=O)OC(C)C(=O)OC(C)C(=O)OC(C)C(=O)OC(C)C(=O)O [D-lactic acid n = 6, D-lactic acid hexamer]
[1]; [7]
  Tetrazolium indicator (L-lactic acid): greater than 400 mg/L
[1]
  sequestration of L-lactate in vitro: did not sequester L-lactate

## CC(O)C(=O)OC(C)C(=O)OC(C)C(=O)OC(C)C(=O)O [D-lactic acid n = 4, D-lactic acid tetramer]
[1]; [7]
  Tetrazolium indicator (L-lactic acid): greater than 400 mg/L
[1]
  sequestration of L-lactate in vitro: did not sequester L-lactate

## C[C@@H](O)C(=O)O[C@H](C)C(=O)O[C@H](C)C(=O)O [D-lactic acid n = 3, D-lactic acid trimer]
[1]; [7]
  Tetrazolium indicator (L-lactic acid): greater than 400 mg/L
[1]
  sequestration of L-lactate in vitro: did not sequester L-lactate

## CC(O)C(=O)OC(C)C(=O)OC(C)C(=O)OC(C)C(=O)OC(C)C(=O)O [D-lactic acid n = 5, D-lactic acid pentamer]
[1]; [7]
  Tetrazolium indicator (L-lactic acid): greater than 400 mg/L
[1]
  sequestration of L-lactate in vitro: did not sequester L-lactate

## C[C@@H](O)C(=O)O[C@H](C)C(=O)O [D-lactic acid dimer]
[1]; 0.5 mg oligomer in 40 microliters of 10 mM L-lactic acid
  Tetrazolium indicator (L-lactic acid): 80 mg/L
[1]; 1.0 mg oligomer in 40 microliters of 10 mM L-lactic acid
  Tetrazolium indicator (L-lactic acid): no color change
[1]; 5.0 mg oligomer in 40 microliters of 10 mM L-lactic acid, result in words
  Tetrazolium indicator (L-lactic acid): no color change
[1]; 7.0 mg oligomer in 40 microliters of 10 mM L-lactic acid
  Tetrazolium indicator (L-lactic acid): no color change
[2]
  sequestration of L-lactate: “sequester or trap” L-lactate
[3]
  killing of cultured leukemia cells: kill
[4]
  killing of cultured HeLa cells: kill
[5]
  killing of cultured retinoblastoma cells: kill
[6]
  cytotoxicity to normal fibroblasts compared with L-lactic acid: less cytotoxic than L-lactic
